Common to all, as to test: NCI anticancer screen, dose series, 48 h
The test system of assay [1] is A498 renal.
Assay [2] deals with A549 NSCLC.
Assay [3] deals with DMS 114 small cell lung.
Assay [4] concerns HOP-92 NSCLC.
For assay [5], the system named is KM20L2 colon.
Assay [6] deals with SK-MEL-28 melanoma.
In assay [7] the test system is U251 CNS.
The subject of assay [8] is MOLT-4 leukemia.
The subject of assay [9] is MCF7 breast.
For assay [10], the system named is NCI/ADR-RES ovarian.

Structures are written as SMILES. Several values for one entry are separate records, joined by “and”; a condition that tells them apart may be missing. Equal values may be shown once.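 Assay format: 96-well plates, 48-hour exposure. GI50 marks 50% less growth. TGI: concentration producing complete growth inhibition.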

In the case of `COc1cc2c3c(c1OC)/C(=N/OS(=O)(=O)c1ccc(C)cc1)CC3N(S(=O)(=O)c1ccc(C)cc1)CC2` (stereo not drawn), the TGI in assay [1], in assay [2], in assay [3], in assay [4], in assay [5] and in assay [6] was above 100 µM each time. Besides, the TGI in assay [7] is above 100 µM.
In the case of `Cc1cc(N(CCC#N)CCC#N)ccc1/C=C/C(=O)Nc1ccccc1Cl`, the TGI in assay [1], in [2], in assay [3], in assay [4], in assay [5] and in [8] was above 100 µM in each case. Besides, the TGI in assay [6] and in [7] was above 100 µM each time.
In the case of `C=CCN(N=O)C(=O)ON1C(=O)CCC1=O`, the TGI in assay [1], in [2], in assay [3], in assay [4], in [5] and in assay [8] was above 100 µM each time. The TGI in assay [6] and in [7] was above 100 µM in each case.
`COC(=O)C1=C(C(=O)OC)N(C(C)C)[C@H]2C(C(=O)OC)=C(C(=O)OC)N(C(C)C)[C@@H]12`: the TGI in assay [1], in assay [2], in assay [3], in [4], in [5] and in [8] was above 100 µM each time. In addition, the TGI in assay [6] and in assay [7] was above 100 µM each time.
`COC(=O)C1=C(C(=O)OC)C(C(=O)OC)C(C(=O)OC)C(C(=O)OC)(C(=O)OC)C(C(=O)OC)=C1C(=O)OC` (stereo not drawn): the TGI in assay [1] stood at 29.3 µM; in assay [2] it was 46.4 µM; in assay [3] it was 23.2 µM; in assay [4] it was 18.4 µM; in assay [5] it was 35.9 µM; in assay [9], 33.6 µM. Besides, the TGI turned out to be 6.71 µM in assay [8], 29.3 µM in assay [6] and 31 µM in assay [7].
As to `O=C1Cc2ccccc2CCc2ccccc21`, the TGI in assay [1], in assay [2], in assay [3], in assay [4], in assay [5] and in assay [8] was above 100 µM in each case. Also, the TGI in assay [6] and in assay [7] was above 100 µM throughout.
On to `O=c1ncccn1C1OC(CO)C(O)C1F` (stereo not drawn), for which the TGI in assay [1], in [2], in [3], in assay [4], in assay [5] and in assay [8] was above 100 µM throughout. Further, the TGI in assay [6] and in assay [7] was above 100 µM each time.
For the compound `CN1C=C(C(N)=O)C2CC(O)[C@@](NC(=O)CS(N)(=O)=O)(C(=O)O)C2C1` (stereo partly drawn), the TGI in assay [1] was 4.96 µM; in [2] it was above 36.2 µM; in [3] it was 7.38 µM; in [4] it was 5.05 µM; in [5] it was above 40.9 µM; in assay [8], 31.6 µM. Moreover, the TGI in assay [6] turned out to be 7.32 µM; in assay [7], 11 µM.
Take `COC(=O)Cc1cc(=O)oc2c1C(=O)CCC2`: the TGI in assay [1], in [2], in [3], in assay [4], in [5] and in assay [8] was above 100 µM each time. The TGI in assay [6] and in [7] was above 100 µM each time.
For the compound `BrC(Br)([P+](c1ccccc1)(c1ccccc1)c1ccccc1)[P+](c1ccccc1)(c1ccccc1)c1ccccc1`, the TGI in assay [1] was 48 µM; in assay [2], above 100 µM; in assay [3] it was 30.3 µM; in [4], 31.2 µM; in assay [5], 86.2 µM; in assay [8], 61.8 µM. Besides, the TGI in assay [6] turned out to be 50 µM; in assay [7], 47.3 µM.
`c1cc2ccc1C1NCCCN1CCN1CCCNC1c1ccc(cc1)C1NCCCN1CCN1CCCNC21` (stereo not drawn): the TGI in assay [1], in [2], in [3], in assay [4], in [5] and in assay [8] was above 100 µM throughout. The TGI in assay [6] and in assay [7] was above 100 µM in each case.
With `O=C(NOC(=O)c1ccc([N+](=O)[O-])cc1)c1ccc(Cl)cc1`, the TGI in assay [1], in [2], in assay [3], in [4], in assay [5] and in assay [8] was above 100 µM each time. Besides, the TGI in [6] and in assay [7] was above 100 µM each time.
Consider `CN1C(=O)CC2(C)c3cc(C=O)ccc3N(C)C12` (stereo not drawn), for which the TGI in assay [1], in [2], in assay [3], in assay [4], in [5] and in [8] was above 100 µM in each case. In addition, the TGI in assay [6] and in assay [7] was above 100 µM throughout.
With `O=C1OC(c2ccc(Cl)c3ccccc23)c2ccccc21` (stereo not drawn), the TGI in assay [1], in assay [2], in assay [3], in [4], in [5] and in assay [8] was above 100 µM each time. Further, the TGI in assay [6] and in assay [7] was above 100 µM in each case.
Consider `C/C(N=NC(=S)N1CCCCCC1)=C1\C=CC=CN1O`, for which the TGI in assay [1] is 92.1 µM; in assay [2], above 92.3 µM; in assay [3], 3.45 µM; in [4], 72.4 µM; in assay [5], above 100 µM; in assay [9] it was above 100 µM. Besides, the TGI is 20.1 µM in [8], above 96.3 µM in assay [6] and above 100 µM in assay [7].
In the case of `O=C1c2c(O)ccc(O)c2C(=O)c2c(NCCNCCO)ccc(NCCNCCO)c21`, the GI50 in [1] was 0.0721 µM; in assay [4] it was 0.0312 µM; in [9], < 0.01 µM and < 0.005 µM and 0.00426 µM; in [8], < 0.01 µM and < 0.005 µM and 0.00476 µM; in [10], 1.41 µM and 1.64 µM and 3.86 µM. Further, the TGI was 0.555 µM and 0.588 µM and 0.59 µM in assay [1]; 0.418 µM and 0.627 µM in [2]; 0.263 µM in assay [3]; 0.773 µM and 0.425 µM and 0.0779 µM in [4]; 8.09 µM in assay [5]; 0.64 µM and 0.663 µM and 1.23 µM in [9]. Moreover, the TGI in assay [8] was 0.235 µM and 0.339 µM; in assay [10], > 100 µM and 50 µM and 23.9 µM; in assay [6], 1.66 µM and 1.03 µM and 2.31 µM; in assay [7] it was 0.151 µM and 0.499 µM and 0.376 µM.
For `COc1cc2c(c(OC)c1OC)-c1ccc(SC)c(=O)cc1[C@@H](NC(=O)c1ccc(F)cc1)CC2`, the GI50 in assay [1] was below 0.01 µM; in [2], 0.0489 µM and < 0.01 µM; in assay [3] it was 0.0267 µM and < 0.01 µM; in [5], below 0.01 µM; in assay [8], below 0.01 µM; in assay [7] it was below 0.01 µM. Also, the TGI in [1] is 0.0757 µM and < 0.01 µM; in [2], above 100 µM; in assay [3], 0.0636 µM and < 0.01 µM; in assay [4], 0.0958 µM; in assay [5], 0.0427 µM and < 0.01 µM; in [8], above 100 µM. In addition, the TGI in assay [6] was above 100 µM; in assay [7], 0.0113 µM.
In the case of `CCC1(Cl)C(=O)NC(=O)N(C2CC(O)C(CO)O2)C1N=[N+]=[N-]` (stereo not drawn), the TGI in assay [1], in [2], in assay [3], in assay [4], in assay [5] and in [8] was above 100 µM each time. Also, the TGI in assay [6] and in [7] was above 100 µM each time.

The record behind these values is PubChem BioAssay (NCI).
